target: DNA polymerase I (Escherichia coli) (UniProt P00582); assay: Compound was evaluated for its inhibitory activity against Klenow enzyme
Sequence (P00582 whole entry, looked up): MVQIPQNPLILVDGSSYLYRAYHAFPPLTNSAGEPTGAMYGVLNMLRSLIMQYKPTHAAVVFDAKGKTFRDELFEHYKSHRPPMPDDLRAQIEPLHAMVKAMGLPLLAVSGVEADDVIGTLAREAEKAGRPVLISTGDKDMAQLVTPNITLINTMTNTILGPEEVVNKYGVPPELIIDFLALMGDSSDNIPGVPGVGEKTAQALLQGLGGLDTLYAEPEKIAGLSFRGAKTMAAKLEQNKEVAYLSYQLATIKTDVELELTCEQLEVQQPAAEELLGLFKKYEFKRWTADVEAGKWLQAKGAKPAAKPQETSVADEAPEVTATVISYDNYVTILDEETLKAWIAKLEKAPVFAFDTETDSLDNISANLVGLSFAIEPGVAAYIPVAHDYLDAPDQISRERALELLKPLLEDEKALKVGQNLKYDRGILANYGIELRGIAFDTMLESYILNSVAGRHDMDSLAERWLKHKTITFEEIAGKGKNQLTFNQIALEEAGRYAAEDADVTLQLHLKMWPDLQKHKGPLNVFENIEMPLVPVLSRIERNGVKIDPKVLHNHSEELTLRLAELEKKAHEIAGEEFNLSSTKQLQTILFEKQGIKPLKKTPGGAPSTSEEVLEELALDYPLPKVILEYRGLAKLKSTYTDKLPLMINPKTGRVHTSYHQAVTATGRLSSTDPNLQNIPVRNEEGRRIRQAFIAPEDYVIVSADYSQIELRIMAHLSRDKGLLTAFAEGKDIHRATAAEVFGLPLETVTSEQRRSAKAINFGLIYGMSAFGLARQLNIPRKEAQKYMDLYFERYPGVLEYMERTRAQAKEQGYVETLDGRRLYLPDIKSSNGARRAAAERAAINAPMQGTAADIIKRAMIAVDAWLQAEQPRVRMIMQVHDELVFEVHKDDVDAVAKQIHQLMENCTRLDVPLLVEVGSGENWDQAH

IC50 [µM]	Compound
61	O=C(Cc1cn(CCn2ccc3cc(Cl)ccc32)c2ccccc12)NCCCCCCCCCCCCOP(=O)(O)Oc1ccccc1 [Phosphoric acid 12-(2-{1-[2-(5-chloro-indol-1-yl)-ethyl]-1H-indol-3-yl}-acetylamino)-dodecyl ester phenyl ester; compound with triethyl-amine]
101	O=C(Cc1cn(CCn2ccc3cc(Cl)ccc32)c2ccccc12)NCCCCCCCCCCCCOP(=O)(O)OC1CCCCC1 [Phosphoric acid 12-(2-{1-[2-(5-chloro-indol-1-yl)-ethyl]-1H-indol-3-yl}-acetylamino)-dodecyl ester cyclohexyl ester; compound with triethyl-amine]
70	O=C(Cc1cn(CCn2ccc3cc(Cl)ccc32)c2ccccc12)NCCCCCCCCCCCCOP(=O)(O)Oc1cccc(Cl)c1 [Phosphoric acid 12-(2-{1-[2-(5-chloro-indol-1-yl)-ethyl]-1H-indol-3-yl}-acetylamino)-dodecyl ester 3-chloro-phenyl ester; compound with triethyl-amine]
